Experimental data taken from ChEMBL document CHEMBL1909046, “DrugMatrix in vitro pharmacology data”.

Columns and labels:
Carbonic anhydrase 2 = Carbonic anhydrase 2 (Homo sapiens, UniProt P00918); assay: DRUGMATRIX: Carbonic Anhydrase II enzyme inhibition (substrate: 4-Nitrophenyl acetate (4-NPA)); type: tissue-based, Erythrocyte; conditions: erythrocyte; Not Active = under 50% inhibition at 10 µM
[1] = DRUGMATRIX: Calcium Channel Type L, Phenylalkylamine radioligand binding (ligand: [3H] (-)-Desmethoxyverapamil (D-888)); type: cell membranes, Rattus norvegicus, Wistar, Brain, Membrane; conditions: Not Active = under 50% inhibition at 10 µM
[2] = biological target: T1, C-X-C chemokine receptor type 2 (Homo sapiens, UniProt P25025); type: cell membranes, Membrane; conditions: cho-k1; further: in other assays of this panel Not Active means under 50% inhibition at 10 µM
T1 sequence (P25025 whole entry): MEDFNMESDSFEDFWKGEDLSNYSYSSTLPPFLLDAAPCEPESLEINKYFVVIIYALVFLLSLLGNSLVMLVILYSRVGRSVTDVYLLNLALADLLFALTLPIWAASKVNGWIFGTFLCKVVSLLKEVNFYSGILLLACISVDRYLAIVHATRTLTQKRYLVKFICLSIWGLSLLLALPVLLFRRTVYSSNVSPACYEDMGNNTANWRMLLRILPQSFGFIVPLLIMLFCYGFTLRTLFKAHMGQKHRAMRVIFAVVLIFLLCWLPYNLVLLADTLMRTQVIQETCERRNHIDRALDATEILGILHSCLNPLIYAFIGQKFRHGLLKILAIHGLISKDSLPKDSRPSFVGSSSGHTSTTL

Melanocortin receptor 4 = Melanocortin receptor 4 (Homo sapiens, UniProt P32245); type: cell membranes, Membrane; conditions: hek293; further: in other assays of this panel Not Active means under 50% inhibition at 10 µM
[3] = DRUGMATRIX: GABAA, Muscimol, Central radioligand binding (ligand: [3H] Muscimol); type: cell membranes, Rattus norvegicus, Wistar, Brain, Membrane; conditions: Not Active = under 50% inhibition at 10 µM
D(4) dopamine receptor = biological target: T2, D(4) dopamine receptor (Homo sapiens, UniProt P21917); assay: DRUGMATRIX: Dopamine D4.2 radioligand binding (ligand: [3H] Spiperone); type: cell membranes, CHO-K1, Membrane; conditions: cho-k1; Not Active = under 50% inhibition at 10 µM
T2 sequence (P21917 whole entry): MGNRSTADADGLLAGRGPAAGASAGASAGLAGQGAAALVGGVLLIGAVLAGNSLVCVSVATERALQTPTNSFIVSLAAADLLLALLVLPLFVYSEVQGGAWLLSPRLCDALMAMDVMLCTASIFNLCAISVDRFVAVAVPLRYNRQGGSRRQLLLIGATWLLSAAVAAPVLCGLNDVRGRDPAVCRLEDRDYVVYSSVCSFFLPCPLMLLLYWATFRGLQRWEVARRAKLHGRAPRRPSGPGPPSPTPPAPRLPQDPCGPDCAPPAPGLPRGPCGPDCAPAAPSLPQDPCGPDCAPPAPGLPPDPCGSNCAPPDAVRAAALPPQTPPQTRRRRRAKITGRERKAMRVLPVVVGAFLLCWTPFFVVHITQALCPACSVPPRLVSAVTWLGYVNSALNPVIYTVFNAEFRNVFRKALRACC

Cytochrome P450 2D6 = Cytochrome P450 2D6 (Homo sapiens, UniProt P10635); conditions: bti-tn-5b1-4; further: in other assays of this panel Not Active means under 50% inhibition at 10 µM
Endothelin-1 receptor = biological target: T3, Endothelin-1 receptor (Homo sapiens, UniProt P25101); type: cell membranes, CHO-K1, Membrane; conditions: cho-k1; further: in other assays of this panel Not Active means under 50% inhibition at 10 µM
T3 sequence (P25101 whole entry): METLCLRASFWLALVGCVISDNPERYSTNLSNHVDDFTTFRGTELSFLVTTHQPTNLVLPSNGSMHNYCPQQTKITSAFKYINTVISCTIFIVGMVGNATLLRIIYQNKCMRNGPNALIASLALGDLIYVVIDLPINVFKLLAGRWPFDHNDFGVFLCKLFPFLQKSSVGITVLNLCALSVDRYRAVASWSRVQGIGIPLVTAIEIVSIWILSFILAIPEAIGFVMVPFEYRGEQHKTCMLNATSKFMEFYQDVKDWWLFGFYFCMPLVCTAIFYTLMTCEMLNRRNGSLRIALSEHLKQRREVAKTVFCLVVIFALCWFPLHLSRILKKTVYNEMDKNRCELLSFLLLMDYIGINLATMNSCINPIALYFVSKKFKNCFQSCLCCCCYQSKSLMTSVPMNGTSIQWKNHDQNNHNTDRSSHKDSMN

Chain of Melanocortin receptor 4 (P32245 whole entry): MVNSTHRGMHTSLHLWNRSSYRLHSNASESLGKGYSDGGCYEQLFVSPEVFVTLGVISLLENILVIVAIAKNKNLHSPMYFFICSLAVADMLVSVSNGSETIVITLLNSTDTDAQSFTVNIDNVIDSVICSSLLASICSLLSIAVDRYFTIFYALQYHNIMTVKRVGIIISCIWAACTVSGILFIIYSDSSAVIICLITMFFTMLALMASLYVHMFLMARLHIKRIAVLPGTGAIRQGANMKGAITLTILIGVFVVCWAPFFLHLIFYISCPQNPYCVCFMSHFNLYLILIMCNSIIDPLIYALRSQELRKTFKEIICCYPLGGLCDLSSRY
Chain of Cytochrome P450 2D6 (P10635 whole entry): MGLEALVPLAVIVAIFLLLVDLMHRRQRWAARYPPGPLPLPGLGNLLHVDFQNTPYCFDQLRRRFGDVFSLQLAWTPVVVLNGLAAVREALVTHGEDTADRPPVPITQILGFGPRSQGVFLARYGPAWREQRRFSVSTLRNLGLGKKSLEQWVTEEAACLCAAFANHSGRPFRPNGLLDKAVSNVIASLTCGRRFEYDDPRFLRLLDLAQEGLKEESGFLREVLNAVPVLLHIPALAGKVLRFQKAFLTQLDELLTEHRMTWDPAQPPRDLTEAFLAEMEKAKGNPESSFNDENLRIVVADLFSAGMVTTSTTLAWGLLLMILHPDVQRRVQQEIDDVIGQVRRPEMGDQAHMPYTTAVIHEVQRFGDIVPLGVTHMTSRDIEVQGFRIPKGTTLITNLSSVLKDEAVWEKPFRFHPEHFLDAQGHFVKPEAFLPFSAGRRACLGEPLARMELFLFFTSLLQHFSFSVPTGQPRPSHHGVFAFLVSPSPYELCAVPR

| SMILES | IC50 (Carbonic anhydrase 2) | IC50 [1] | Ki [1] | IC50 [2] | IC50 (Melanocortin receptor 4) | IC50 [3] | Ki [3] | IC50 (D(4) dopamine receptor) | IC50 (Cytochrome P450 2D6) | Ki (Cytochrome P450 2D6) | IC50 (Endothelin-1 receptor) | IC50 ([1]; read-out: IC50) [µM] | Ki ([1]; read-out: Ki) [µM] |
| --- | --- | --- | --- | --- | --- | --- | --- | --- | --- | --- | --- | --- | --- |
| Nc1nc(N)nc(NC2CC2)n1 [CYROMAZINE] | Not Active | Not Active | Not Active | Not Active | Not Active | Not Active | Not Active | Not Active | Not Active | Not Active | Not Active |  |  |
| C#C[C@]1(O)CC[C@H]2[C@@H]3CCC4=Cc5oncc5C[C@]4(C)[C@H]3CC[C@@]21C [DANAZOL] | Not Active |  |  | Not Active | Not Active | Not Active | Not Active | Not Active | Not Active | Not Active | Not Active | 14.6 | 14.2 |
| CCN[C@@H](C)Cc1cccc(C(F)(F)F)c1 [DEXFENFLURAMINE] | Not Active | Not Active | Not Active | Not Active | Not Active | Not Active | Not Active | Not Active | Not Active | Not Active | Not Active |  |  |
| C[C@H](C(=O)O)c1cccc(C(=O)c2ccccc2)c1 [DEXKETOPROFEN] | Not Active | Not Active | Not Active | Not Active | Not Active | Not Active | Not Active | Not Active | Not Active | Not Active | Not Active |  |  |
| Cc1c(N(C)CS(=O)(=O)[O-])c(=O)n(-c2ccccc2)n1C.[Na+] [DIPYRONE SODIUM] | Not Active | Not Active | Not Active | Not Active | Not Active | Not Active | Not Active | Not Active | Not Active | Not Active | Not Active |  |  |
| CC(CCc1ccc(O)cc1)NCCc1ccc(O)c(O)c1 (stereo unspecified) [DOBUTAMINE] | Not Active | Not Active | Not Active | Not Active | Not Active | Not Active | Not Active | Not Active | Not Active | Not Active | Not Active |  |  |
| CCn1cc(C(=O)O)c(=O)c2cc(F)c(N3CCNCC3)nc21 [ENOXACIN] | Not Active | Not Active | Not Active | Not Active | Not Active | Not Active | Not Active | Not Active | Not Active | Not Active | Not Active |  |  |
| CCC(=O)O[C@H]1[C@H](O[C@@H]2[C@@H](C)[C@H](O[C@H]3C[C@@](C)(OC)[C@@H](O)[C@H](C)O3)[C@@H](C)C(=O)O[C@H](CC)[C@@](C)(O)[C@H](O)[C@@H](C)C(=O)[C@H](C)C[C@@]2(C)O)O[C@H](C)C[C@@H]1N(C)C [ERYTHROMYCIN PROPIONATE] | Not Active | Not Active | Not Active | Not Active | Not Active | Not Active | Not Active | Not Active | Not Active | Not Active | Not Active |  |  |
| C=C(CC)C(=O)c1ccc(OCC(=O)O)c(Cl)c1Cl [ETHACRYNIC ACID] | Not Active | Not Active | Not Active | Not Active | Not Active | Not Active | Not Active | Not Active | Not Active | Not Active | Not Active |  |  |
| C#C[C@]1(O)CC[C@H]2[C@@H]3CCc4cc(O)ccc4[C@H]3CC[C@@]21C [ETHINYL ESTRADIOL] | Not Active |  |  | Not Active | Not Active | Not Active | Not Active | Not Active | Not Active | Not Active | Not Active | 6.99 | 6.79 |
| OCCO [ETHYLENE GLYCOL] | Not Active | Not Active | Not Active | Not Active | Not Active | Not Active | Not Active | Not Active | Not Active | Not Active | Not Active |  |  |
